Counter-ions that a name gives are not always drawn. Like-named read-outs stand apart in the source and are kept apart here.
How the values were obtained:
[1] = biological target: T1, KOR (Mus musculus, UniProt P33534); assay: Competitive radioligand binding assay, KOR; settings: for Selectivity D/K: ratio of Ki DOR/KOR; for Selectivity M/K: ratio of Ki MOR/KOR
[2] = biological target: T2, MOR (Mus musculus, UniProt P42866); assay: Competitive radioligand binding assay, MOR; settings: ratio of Ki DOR/MOR
[3] = biological target: T1, KOR; assay: [35S]-GTPγS binding assay, mKOR-CHO membrane; format: biochemical; settings: mean ± SEM; for KOR %Emax: %Emax = 100 defined using 5 μM U50,488H; for EC50: read-out: KOR EC50
[4] = biological target: DOR (Mus musculus, UniProt P32300); assay: [35S]-GTPγS binding assay, mDOR-CHO membrane; format: biochemical; settings: for DOR %Emax: %Emax = 100 defined using 5 μM SNC80; for DOR %Emax / EC50: mean ± SEM; for EC50: read-out: DOR EC50
[5] = biological target: T2, MOR; assay: [35S]-GTPγS binding assay, mMOR-CHO membrane; format: biochemical; settings: for MOR %Emax: %Emax = 100 defined using Emax of 3 μM DAMGO; for MOR %Emax / EC50: mean ± SEM; for EC50: read-out: MOR EC50
[6] = system: mice; assay: Warm-water tail immersion; format: in vivo, mouse; settings: for Antinociceptive effect (%MPE) in single-dose screening: 20 min, vs vehicle; for Antinociception potency ED50 (95% CL): 20 min after injection; for Blocking of the antinociception of 0.1 mg/kg NMF by selective antagonist: nor-BNI, β-FNA 10 mg/kg s.c. 24 h prior, NTI 15 mg/kg s.c. 30 min prior
[7] = cited from earlier work
[8] = Caco-2 permeability assay; settings: human, Caco-2
[9] = system: mice; settings: cited from earlier work
[10] = 0.003 mg/kg; cited from earlier work
[11] = 0.03 mg/kg; cited from earlier work
[12] = system: monkeys; settings: 0.001 mg/kg; cited from earlier work
[13] = cited from earlier work; remark: listed apart in the source
[14] = Weight change under chronic administration; settings: 10 mg/kg s.c. twice daily, mice

| Compound | Selectivity D/K [1] | Selectivity M/K [1] | Selectivity D/M [2] | KOR %Emax [3] | EC50 [3] | DOR %Emax [4] | EC50 [4] | MOR %Emax [5] | EC50 [5] | further results |
| --- | --- | --- | --- | --- | --- | --- | --- | --- | --- | --- |
| Cl.O=C(/C=C/c1ccoc1)N[C@H]1CC[C@@]2(O)[C@H]3Cc4cccc5c4[C@@]2(CCN3CC2CC2)[C@H]1O5 [Compound 13, (2E)-N-[6α-17-(Cyclopropylmethyl)-4,5α-epoxy-14-hydroxy-morphinan-6-yl]-3-(3-furanyl)-2-propenamide hydrochloride] | 1.7 | 1.9 | 0.9 | 103 ± 2% | 135 ± 25 nM | 102 ± 8% | 714 ± 87 nM | 22.8 ± 2.1% | 283 ± 49 nM | Antinociceptive effect (%MPE) in single-dose screening ([6]; 10 mg/kg s.c., mice): absence of antinociception |
| Cl.O=C(/C=C/c1ccoc1)N[C@@H]1CC[C@@]2(O)[C@H]3Cc4ccc(O)c5c4[C@@]2(CCN3CC2CC2)[C@H]1O5 [Compound 10, (2E)-N-[6β-17-(Cyclopropylmethyl)-3,14-dihydroxy-4,5α-epoxy-morphinan-6-yl]-3-(3-furanyl)-2-propenamide hydrochloride] | 26 | 1.8 | 15 | 95.2 ± 4.9% | 0.36 ± 0.02 nM | 103 ± 11% | 24.8 ± 4.7 nM | 40.8 ± 2.2% | 1.36 ± 0.14 nM | Antinociception potency ED50 (95% CL) ([6]; mice, s.c.): 2.414 (1.720 - 3.388) mg/kg |
| CC(CCc1ccccc1)NCC(O)c1ccc(O)c(C(N)=O)c1 (centres unmarked) [Labetalol] | – | – | – | – | – | – | – | – | – | %fa: extent of absorption in humans [7]: 90%; %fa: extent of absorption in humans ([7]; listed as labetalol): 90%; Papp A→B at 10 µM [8]: 18.5 ± 0.3 ×10⁻⁶ cm/s; Papp B→A at 10 µM [8]: 34.2 ± 0.4 ×10⁻⁶ cm/s |
| CN(C(=O)/C=C/c1ccoc1)[C@@H]1CC[C@@]2(O)[C@H]3Cc4cccc5c4[C@@]2(CCN3CC2CC2)[C@H]1O5.Cl [Compound 16, (2E)-N-[6β-17-(Cyclopropylmethyl)-4,5α-epoxy-14-hydroxy-morphinan-6-yl]-3-(3-furanyl)-N-methyl-2-propenamide hydrochloride] | 343 | 42 | 8.1 | 94.6 ± 2.9% | 59 ± 7.1 nM | 107 ± 8% | 2100 ± 400 nM | 17.5 ± 4.4% | 1800 ± 1100 nM | Antinociception potency ED50 (95% CL) ([6]; mice, s.c.): 1.610 (1.057 - 2.452) mg/kg |
| CN(C(=O)/C=C/c1ccoc1)[C@@H]1CC[C@@]2(O)[C@H]3Cc4ccc(O)c5c4[C@@]2(CCN3CC2CC2)[C@H]1O5 [Compound 12, (2E)-N-[6β-17-(Cyclopropylmethyl)-3,14-dihydroxy-4,5α-epoxy-morphinan-6-yl]-3-(3-furanyl)-N-methyl-2-propenamide hydrochloride] | – | – | – | – | – | moderate-to-high efficacy | – | – | – | Emax ([4]; read-out: DOR %Emax): 65.7 ± 6.4%; Emax ([5]; read-out: MOR %Emax): 30.3 ± 3.7%; Antinociceptive effect in morphine-tolerated mice [9]: retained its antinociceptive effect; Action time [10]: 3 to 4 h; Action time [11]: less than 2 hours; Respiratory depression [12]: did not induced respiratory depression |
| CNC(=C[N+](=O)[O-])NCCSCc1ccc(CN(C)C)o1 [Ranitidine] | – | – | – | – | – | – | – | – | – | %fa: extent of absorption in humans [7]: 50%; Papp A→B at 10 µM [8]: 0.5 ± 0.02 ×10⁻⁶ cm/s |
| Oc1ccc2c3c1O[C@H]1c4[nH]c5c(c4C[C@@]4(O)[C@@H](C2)N(CC2CC2)CC[C@]314)C[C@@]1(O)[C@H]2Cc3ccc(O)c4c3[C@@]1(CCN2CC1CC1)[C@H]5O4 [nor-BNI, reference compound] | – | – | – | – | – | – | – | – | – | Blocking of the antinociception of 0.1 mg/kg NMF by selective antagonist [6]: able to reduce the antinociception |
| Cl.O=C(/C=C/c1ccoc1)N[C@@H]1CC[C@@]2(O)[C@H]3Cc4cccc5c4[C@@]2(CCN3CC2CC2)[C@H]1O5 [Compound 14, (2E)-N-[6β-17-(Cyclopropylmethyl)-4,5α-epoxy-14-hydroxy-morphinan-6-yl]-3-(3-furanyl)-2-propenamide hydrochloride] | 345 | 26 | 14 | 97.9 ± 2.4% | 46 ± 6.8 nM | 107 ± 13% | 1500 ± 140 nM | 27.7 ± 1.1% | 167 ± 23 nM | Antinociception potency ED50 (95% CL) ([6]; mice, s.c.): 3.827 (1.224 -11.97) mg/kg |
| CN(C(=O)/C=C/c1ccoc1)[C@H]1CC[C@@]2(O)[C@H]3Cc4cccc5c4[C@@]2(CCN3CC2CC2)[C@H]1O5.Cl [Compound 15, (2E)-N-[6a-17-(Cyclopropylmethyl)-4,5a-epoxy-14-hydroxy-morphinan-6-yl]-3-(3-furanyl)-N-methyl-2-propenamide hydrochloride] | 249 | 21 | 12 | 98.4 ± 2.4% | 2.52 ± 0.38 nM | 108 ± 7% | 242 ± 28 nM | 55.8 ± 2.9% | 132 ± 10 nM | Antinociception potency ED50 (95% CL) ([6]; mice, s.c.): 0.341 (0.196 - 0.604) mg/kg |
| Cl.O=C(/C=C/c1ccoc1)N[C@H]1CC[C@@]2(O)[C@H]3Cc4ccc(O)c5c4[C@@]2(CCN3CC2CC2)[C@H]1O5 [Compound 9, (2E)-N-[6α-17-(Cyclopropylmethyl)-3,14-dihydroxy-4,5α-epoxy-morphinan-6-yl]-3-(3-furanyl)-2-propenamide hydrochloride] | 10 | 0.6 | 16 | 73.7 ± 2.5% | 15.3 ± 1.9 nM | 108 ± 6% | 83.6 ± 28.8 nM | 25.9 ± 1.0% | 8.41 ± 0.98 nM | Antinociceptive effect (%MPE) in single-dose screening ([6]; 10 mg/kg s.c., mice): no significant increase of %MPE |
| CC(C)NCC(O)COc1cccc2ccccc12 (centres unmarked) [Propranolol] | – | – | – | – | – | – | – | – | – | Papp A→B at 10 µM [8]: 23.8 ± 0.4 ×10⁻⁶ cm/s; Papp B→A at 10 µM [8]: 25.6 ± 0.7 ×10⁻⁶ cm/s |
| COC(=O)/C=C/C(=O)N[C@@H]1CC[C@@]2(O)[C@H]3Cc4ccc(O)c5c4[C@@]2(CCN3CC2CC2)[C@H]1O5 [β-FNA, reference compound] | – | – | – | – | – | – | – | – | – | Blocking of the antinociception of 0.1 mg/kg NMF by selective antagonist [6]: not able to block the antinociception |
| CC[C@@H]1CN2CCc3c([nH]c4cccc(OC)c34)[C@H]2C[C@@H]1/C(=C\OC)C(=O)OC [speciociliatine] | – | – | – | – | – | – | – | – | – | PPB [13]: 90-99% |
| CN1CC[C@]23c4c5ccc(O)c4O[C@H]2[C@@H](O)C=C[C@H]3[C@H]1C5 [Morphine, reference compound] | – | – | – | – | – | – | – | – | – | Duration of antinociception ([6]; 10 mg/kg s.c., mice): approximately 3 hours; Time of peak antinociceptive effect ([6]; time-course study, s.c., mice): around 0.5 h; Weight change [14]: lost weight significantly after only one day |
| mitragynine | – | – | – | – | – | – | – | – | – | PPB [13]: 90-99% |
| Oc1ccc2c3c1O[C@H]1c4[nH]c5ccccc5c4C[C@@]4(O)[C@@H](C2)N(CC2CC2)CC[C@]314 [NTI, reference compound] | – | – | – | – | – | – | – | – | – | Blocking of the antinociception of 0.1 mg/kg NMF by selective antagonist [6]: able to reduce the antinociception |

Reference: paper PMC10243363 (ACS chemical neuroscience, 2022)
